# Experimental data reported in patent US10138490B2, “Transformed plants tolerant to herbicides due to overexpression of prephenate dehydrogenase and p-hydroxyphenylpyruvate dioxygenase” (priority 2002, dated 2018).
# Columns and labels:
# Format in all cases: in vivo
# [1] = system: ARA9-PDH tobacco lines (overexpressing PDH and HPPD); assay: Tolerance to HPPD inhibitors: sowing on increasing concentrations of DKN, doubly transformed lines
# From the text: (§1) The tolerance of the transformed plants is studied by sowing on a soil treated with diketonitrile (DKN).
# (§2) 13 ARA9-PDH lines and the PBD6-ARA9 line that was used as starting material for the transformation were sown on increasing concentrations of DKN:5, 10 and 32 ppm.
# [2] = system: PBD6-ARA9 tobacco line (overexpressing A. thaliana HPPD); assay: Tolerance to HPPD inhibitors: sowing on increasing concentrations of DKN, parental line
# From the text: as §1, §2
# [3] = system: wild-type tobacco line of the Petit Havana type; assay: Tolerance to sulcotrione and to mesotrione, wild-type line
# ARA9-PDH18 tobacco line = assay: Tolerance to sulcotrione and to mesotrione, ARA9-PDH18 line
# Protocol: as §2
# The same experiment was carried out with the HPPD inhibitors sulcotrione and mesotrione.
SMILES,"response of lines sown on DKN ([1]; 5 ppm DKN, all 13 ARA9-PDH lines)","response of line sown on DKN ([1]; 10 ppm DKN, ARA9-PDH4 line)","response of lines sown on DKN ([1]; 10 ppm DKN, all ARA9-PDH lines except ARA9-PDH4)","response of lines sown on DKN ([1]; 32 ppm DKN, ARA9-PDH lines that were resistant to 10 ppm)",response of line sown on DKN ([2]; 5 ppm DKN),response of line sown on DKN ([2]; 10 ppm DKN),response of line sown on DKN ([2]; 32 ppm DKN),concentration of HPPD inhibitor the line is sensitive to [3],concentration of HPPD inhibitor the line is tolerant to (ARA9-PDH18 tobacco line)
CS(=O)(=O)c1cc(C(F)(F)F)ccc1C(=O)C(C#N)C(=O)C1CC1 (centres unmarked) [DKN],resistant,inhibited,resist well,resistant and grow normally,resistant,completely inhibited,completely inhibited,–,–
CS(=O)(=O)c1ccc(C(=O)C2C(=O)CCCC2=O)c([N+](=O)[O-])c1 [mesotrione],–,–,–,–,–,–,–,0.375 µM,3 µM
CS(=O)(=O)c1ccc(C(=O)C2C(=O)CCCC2=O)c(Cl)c1 [sulcotrione],–,–,–,–,–,–,–,0.375 µM,6 µM
